According to ChEMBL document CHEMBL1201862, “PubChem BioAssay data set” (2004):
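Where inhibition never reached the appropriate level, the endpoint shown equals the highest concentration tested. Otherwise, values were interpolated linearly from a five-concentration, 48-hour dose response in 96-well plates. At the GI50, growth is halved.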 Calls of active or inactive are those of the source. Rule as the data show it: active = GI50 up to about 1.1 µM and inactive = higher.

What was measured:
Test in all cases: NCI tumour cell line growth inhibition, 48 h
[1] = system: A549
[2] = system: COLO 205
[3] = system: DU-145
[4] = system: HCT-116
[5] = system: Hs-578T
[6] = system: IGROV-1
[7] = system: K562
[8] = system: MDA-MB-435
[9] = system: MDA-N
[10] = system: MOLT-4
[11] = system: NCI-H23
[12] = system: OVCAR-3
[13] = system: OVCAR-8
[14] = system: PC-3
[15] = system: SF-268
[16] = system: SF-539
[17] = system: SNB-19
[18] = system: SR
[19] = system: TK-10
[20] = system: UACC-257

SMILES	GI50 [1]	GI50 [2]	GI50 [3]	GI50 [4]	GI50 [5]	GI50 [6]	GI50 [7]	GI50 [8]	GI50 [9]	GI50 [10]	GI50 [11]	GI50 [12]	GI50 [13]	GI50 [14]	GI50 [15]	GI50 [16]	GI50 [17]	GI50 [18]	GI50 [19]	GI50 [20]
Cc1cccc2c(N)c3cccc(C(=O)NCC[N+](C)(C)Cc4ccc([N+](=O)[O-])n4C)c3nc12	1.92 µM (inactive)	9.82 µM (inactive)	18.8 µM (inactive)	14.6 µM (inactive)	7.26 µM (inactive)	9.53 µM (inactive)	11.5 µM (inactive)	52 µM (inactive)	41.3 µM (inactive)	1.66 µM (inactive)	13.2 µM (inactive)	24.7 µM (inactive)	18.7 µM (inactive)	24 µM (inactive)	8.47 µM (inactive)	13.5 µM (inactive)	15.6 µM (inactive)	3.44 µM (inactive)	47.9 µM (inactive)	53.5 µM (inactive)
CSC(=N/N=C(\C)c1ccc(S(=O)(=O)N(C)c2ccccc2)cc1)SC	> 100 µM (inactive)	> 67.1 µM (inactive)	> 66.4 µM (inactive)	> 64.7 µM (inactive)	> 59.4 µM (inactive)	> 61.4 µM (inactive)	> 53.1 µM (inactive)	> 62.8 µM (inactive)	> 66.2 µM (inactive)	17.2 µM (inactive)	> 63.1 µM (inactive)	> 63.4 µM (inactive)	> 100 µM (inactive)	> 62.7 µM (inactive)	> 66.5 µM (inactive)	> 52.4 µM (inactive)	> 66.2 µM (inactive)	> 59.6 µM (inactive)	> 100 µM (inactive)	> 100 µM (inactive)
CC(C)c1ccc(C2NC(S)=NC3=C2c2ccccc2C3=O)cc1 (stereo not given)	28.6 µM (inactive)	26.4 µM (inactive)	16.7 µM (inactive)	23.6 µM (inactive)	14.8 µM (inactive)	27 µM (inactive)	22.6 µM (inactive)	6.97 µM (inactive)	5.31 µM (inactive)	24.4 µM (inactive)	23.6 µM (inactive)	26.2 µM (inactive)	32.1 µM (inactive)	11.3 µM (inactive)	19.9 µM (inactive)	18.7 µM (inactive)	23.8 µM (inactive)	8.95 µM (inactive)	34 µM (inactive)	> 41.4 µM (inactive)
CN/N=C(/C=C/c1ccccc1)C(C)C	> 100 µM (inactive)	> 100 µM (inactive)	> 100 µM (inactive)	> 100 µM (inactive)	> 100 µM (inactive)	> 100 µM (inactive)	> 100 µM (inactive)	> 100 µM (inactive)	> 100 µM (inactive)	> 100 µM (inactive)	> 100 µM (inactive)	> 100 µM (inactive)	> 100 µM (inactive)	> 100 µM (inactive)	> 100 µM (inactive)	> 100 µM (inactive)	> 100 µM (inactive)	> 100 µM (inactive)	> 100 µM (inactive)	> 100 µM (inactive)
CCOC(=O)CCC(C(=O)OCC)n1nnc2cc(Nc3c(C)[n+]([O-])c4ccc(Cl)cc4[n+]3[O-])ccc21 (stereo not given)	> 100 µM (inactive)	44.8 µM (inactive)	> 100 µM (inactive)	69.5 µM (inactive)	> 100 µM (inactive)	> 100 µM (inactive)	69.3 µM (inactive)	> 100 µM (inactive)	> 100 µM (inactive)	44.2 µM (inactive)	92 µM (inactive)	40.4 µM (inactive)	> 100 µM (inactive)	> 100 µM (inactive)	34.8 µM (inactive)	82.4 µM (inactive)	> 100 µM (inactive)	48.6 µM (inactive)	> 100 µM (inactive)	54.1 µM (inactive)
Cn1c(=O)c2sc3c4sc5c(=O)n(C)c6ccccc6c5c4sc3c2c2ccccc21	> 100 µM (inactive)	> 100 µM (inactive)	> 100 µM (inactive)	> 100 µM (inactive)	56.5 µM (inactive)	> 100 µM (inactive)	> 100 µM (inactive)	> 100 µM (inactive)	> 100 µM (inactive)	> 100 µM (inactive)	> 100 µM (inactive)	> 100 µM (inactive)	> 100 µM (inactive)	> 100 µM (inactive)	> 100 µM (inactive)	> 100 µM (inactive)	22.4 µM (inactive)	66.4 µM (inactive)	> 100 µM (inactive)	> 100 µM (inactive)
CC(C)NC(=O)OCc1c(COC(=O)NC(C)C)n(C)c2c1ccc1ccccc12	9.98 µM (inactive)	1.84 µM (inactive)	3.1 µM (inactive)	1.45 µM (inactive)	0.971 µM (active)	1.43 µM (inactive)	0.171 µM (active)	1.52 µM (inactive)	1.74 µM (inactive)	1.15 µM (inactive)	1.54 µM (inactive)	2.97 µM (inactive)	1.8 µM (inactive)	4.43 µM (inactive)	1.9 µM (inactive)	1.68 µM (inactive)	1.74 µM (inactive)	0.57 µM (active)	1.63 µM (inactive)	1.52 µM (inactive)
CNC(=O)C(C)NC(=O)C(Cc1ccccc1)NC(=O)OC(C)(C)C (stereo not given)	> 100 µM (inactive)	> 100 µM (inactive)	> 100 µM (inactive)	> 100 µM (inactive)	> 100 µM (inactive)	> 100 µM (inactive)	> 100 µM (inactive)	> 100 µM (inactive)	> 100 µM (inactive)	> 100 µM (inactive)	> 100 µM (inactive)	> 100 µM (inactive)	> 100 µM (inactive)	> 100 µM (inactive)	> 100 µM (inactive)	> 100 µM (inactive)	> 100 µM (inactive)	> 100 µM (inactive)	> 100 µM (inactive)	> 100 µM (inactive)
CC(C)CCCC(C)[C@H]1CC[C@H]2N/C(=N/Cc3ccccc3)CCC[C@]12C (stereo not given in full)	1.83 µM (inactive)	1.42 µM (inactive)	2.52 µM (inactive)	2.6 µM (inactive)	3.37 µM (inactive)	1.74 µM (inactive)	1.26 µM (inactive)	1.64 µM (inactive)	1.71 µM (inactive)	1.88 µM (inactive)	2.23 µM (inactive)	2.07 µM (inactive)	1.67 µM (inactive)	1.81 µM (inactive)	2.2 µM (inactive)	1.83 µM (inactive)	2.94 µM (inactive)	2.72 µM (inactive)	2.08 µM (inactive)	2.42 µM (inactive)
CN(C)CCCNc1cnc2cc3ccccc3cc2n1	26 µM (inactive)	18.3 µM (inactive)	41 µM (inactive)	32.8 µM (inactive)	32.1 µM (inactive)	13.9 µM (inactive)	25.4 µM (inactive)	24.5 µM (inactive)	32.8 µM (inactive)	28.4 µM (inactive)	25.1 µM (inactive)	17.6 µM (inactive)	19.6 µM (inactive)	15.4 µM (inactive)	23.8 µM (inactive)	23.5 µM (inactive)	36.1 µM (inactive)	61.1 µM (inactive)	27 µM (inactive)	19.2 µM (inactive)
